From US10301630B2, “Methods and compositions for unsilencing imprinted genes” (The University of North Carolina at Chapel Hill, priority 2010, dated 2019)
Like-named read-outs stand apart in the source and are kept apart here.

Test system: paternal Ube3a-YFP allele
Experiment: High-content imaging of paternal Ube3a-YFP unsilencing in primary cortical neurons
Type: cell-based, mouse
Conditions: 72 h; for EC50: unsilencing paternal Ube3a-YFP; for Potency EC20 / EC20 / Potency EC20 (nM): 1 nM to 30 μM; for EC20: read-out: Potency EC20; for unsilencing of paternal Ube3a-YFP in dose-response experiments: cultured Ube3a m+/pYFP neurons
Procedure: In all screening assays, primary cortical neurons from Ube3a-YFP mice are isolated from embryonic day 15.5 animals, and the genotype of animals is determined to identify mice that encode the Ube3a-YFP transgene on the paternal allele. Freshly isolated cortical neurons are seeded into 384 well plates and cultured for 7 days. At day in vitro seven, screening is performed using multiple chemical libraries and compound concentration of 10 μM in 0.2% DMSO vehicle. After 72 h of drug exposure (run in quadruplicate wells), neurons are fixed with 4% para formaldehyde and processed for immunofluorescence using an anti-GFP-Alexa 488 conjugated antibody to enhance the signal of Ube3a-YFP in neurons. For image analyses, individual wells of immunofluorescence-processed plates are imaged fro DAPI and GFP fluorescence using the BD-Pathway 855 high-content imaging microscope. Ube3a-YFP fluorescence intensities in individual neurons are determined in drug-treated wells and normalized to 0.2% DMSO-treated (i.e., vehicle control) wells using custom written macros and algorithms using NIH Image J and Arrayscan Cell Profiler software programs. These image analyses enable masking of nuclei in individual neurons and determination of Ube3a-YFP fluorescence intensity in the nuclei of individual neurons.
For these studies, DIV 7 primary neurons encoding paternal Ube3a-YFP are dose treated with hit compounds across seven orders of magnitude in full and half log molar concentrations (3 pM to 30 μM). Ube3a-YFP fluorescence intensities in living neurons are determined again by high-content imaging microscopy after 72 h treatments. The dose response results are analyzed by least squares sigmoidal dose-response curve fitting models using Graphpad Prism 5.0 (Graphpad Software, Inc.). The calculated EC50 values (potencies) and Y value top plateau (estimated efficacies or Emax) enable comparative analyses of the relative potency and efficacy of the identified compounds.
Primary cortical neurons were isolated from E13.5-16.5 Ube3a-YFP mice. Screening was performed in quadruplicate at DIV7 using multiple chemical libraries and a compound concentration of 10 μM in 0.2% DMSO vehicle. After 72 h of drug exposure, neurons were fixed with 4% paraformaldehyde in PBS for 35 min, permeabilized with 0.3% Triton X-100 in PBS on ice for 30 min, and blocked by 5% goat serum with 0.1% Triton X-100 in PBS at room temperature for 1 hr. Cells were incubated with a rabbit polyclonal antibody to GFP (1:1000, Novus Biologicals, NB600-308) at room temperature for 1 hr and then incubated with Alexa Fluor 488 goat antibody to rabbit IgG (1:200, Invitrogen, A11008) and DAPI (1:10,000, Invitrogen, D-1306) at room temperature for 30 min. Individual wells of immunofluorescence-processed plates were imaged for DAPI or Alexa 488 fluorescence using the BD Pathway 855 high-content imaging microscope with a 488 excitation/515 long pass filter. Antibody-enhanced UBE3A-YFP fluorescence intensities were determined from individual neurons in drug-treated wells and normalized to neurons in wells treated with 0.2% DMSO (vehicle control). Analyses were performed with custom macros and algorithms using NIH Image J and Arrayscan Cell Profiler software programs (Thermo Scientific/Cellomics). These image analyses enabled masking of nuclei in individual neurons and determination of UBE3A-YFP fluorescence intensities in the nuclei of individual neurons (FIG. 16).
DIV7 primary neurons from Ube3a^m+/pYFP mice were dose-treated for 72 h with topoisomerase I and II inhibitors in ten point dose-responses in full and half log molar concentrations (1 nM to 30 μM). Neurons were fixed, processed for immunofluorescence, and UBE3A-YFP fluorescence intensities were again determined by high-content imaging microscopy.

[1] = Table 1, Ube3a-YFP fluorescence intensity above control cells (0.2% DMSO treated), cortical neurons
[2] = Table 1, cortical neurons, read-out: EC50
[3] = Table 3, unsilencing the paternal allele of Ube3a-YFP in cultured neurons
[4] = Mus musculus, Cortical neurone, Table 1, Ube3a-YFP fluorescence intensity above control cells (0.2% DMSO treated), cortical neurons, read-out: Efficacy Emax (fold over control)
[5] = Mus musculus, Cortical neurone, Table 1, cortical neurons, read-out: EC50
[6] = Mus musculus, Neuron, Table 3, unsilencing the paternal allele of Ube3a-YFP in cultured neurons
[7] = Mus musculus, Neuron, Table 3, unsilencing the paternal allele of Ube3a-YFP in cultured neurons, read-out: Efficacy Emax (fold over vehicle)

## CCc1c2c(nc3ccc(O)cc13)-c1cc3c(c(=O)n1C2)COC(=O)[C@]3(O)CC [7-Ethyl-10-Hydroxy-CPT]
[1]
  Efficacy Emax (fold over control): 2.00 ± 0.09 fold over control
[2]
  EC50: 33 ± 1.3 nM
[3]
  Efficacy Emax (fold over vehicle): 1.99 ± 0.06 fold over vehicle
  Potency EC20: 11 ± 3.2 nM

## CCc1c2c(nc3ccccc13)-c1cc3c(c(=O)n1C2)COC(=O)[C@]3(O)CC [7-Ethyl-CPT, 7-Ethyl-Camptothecin]
[1]
  Efficacy Emax (fold over control): 1.68 ± 0.05 fold over control
[2]
  EC50: 49 ± 1.3 nM
[3]
  Efficacy Emax (fold over vehicle): 1.70 ± 0.04 fold over vehicle
  Potency EC20: 7.2 ± 2.3 nM

## CC[C@@]1(O)C(=O)OCc2c1cc1n(c2=O)Cc2cc3cc(O)ccc3nc2-1 [10-Hydroxy-CPT]
[1]
  Efficacy Emax (fold over control): 1.68 ± 0.06 fold over control
[2]
  EC50: 40 ± 1.4 nM
[3]
  Efficacy Emax (fold over vehicle): 1.82 ± 0.08 fold over vehicle
  Potency EC20: 14 ± 5.7 nM

## COc1cc(NS(C)(=O)=O)ccc1Nc1c2ccccc2nc2ccccc12 [Amsacrine]
[4]
  maximal fold induction: 1.65 ± 0.05
[5]
  EC50: 28 ± 10 nM
[6]
  EC20: 27 ± 5.2 nM
[7]
  maximal fold induction: 1.74 ± 0.06

## CC[C@@]1(O)C(=O)OCc2c1cc1n(c2=O)Cc2c-1nc1ccccc1c2CCNC(C)C [Belotecan (CKD602), Belotecan]
[4]
  maximal fold induction: 1.85 ± 0.04
[5]
  EC50: 18 ± 1.1 nM
[6]
  EC20: 19 ± 4.4 nM
[7]
  maximal fold induction: 1.88 ± 0.05

## CC[C@@]1(O)C(=O)OCc2c1cc1n(c2=O)Cc2cc3ccccc3nc2-1 [Camptothecin (CPT), Camptothecin]
[4]
  maximal fold induction: 1.66 ± 0.06
[5]
  EC50: 32 ± 1.3 nM
[6]
  EC20: 21 ± 3.8 nM
[7]
  maximal fold induction: 2.11 ± 0.05

## C[C@@H](CN1CC(=O)NC(=O)C1)N1CC(=O)NC(=O)C1 [Dexrazoxane (ICRF-187), Dexrazoxane]
[6]
  EC20: 20500 ± 1450 nM
[7]
  maximal fold induction: 1.82 ± 0.05
  unsilencing of paternal Ube3a-YFP in dose-response experiments: unsilenced the paternal Ube3a-YFP allele

## COc1cc([C@@H]2c3cc4c(cc3[C@@H](O[C@@H]3O[C@@H]5CO[C@@H](C)O[C@H]5[C@H](O)[C@H]3O)[C@H]3COC(=O)[C@H]23)OCO4)cc(OC)c1O [Etoposide]
[6]
  EC20: 1600 ± 980 nM
[7]
  maximal fold induction: 1.68 ± 0.04
  unsilencing of paternal Ube3a-YFP in dose-response experiments: unsilenced the paternal Ube3a-YFP allele

## CC[C@@]1(O)C(=O)NCc2c1cc1n(c2=O)Cc2cc3ccccc3nc2-1 [Lactam E ring-CPT (inactive), Lactam E ring-CPT]
[3]
  Efficacy Emax (fold over vehicle): inactive
  Potency EC20 (nM): inactive
  unsilencing of paternal Ube3a-YFP in dose-response experiments: failed to unsilence the paternal Ube3a-YFP allele

## COc1cc2c3c(n(CCCNCCO)c(=O)c2cc1OC)-c1cc2c(cc1C3=O)OCO2 [NSC706744]
[1]
  Efficacy Emax (fold over control): 1.76 ± 0.03 fold over control
[2]
  EC50: 6.2 ± 2 nM
[3]
  Efficacy Emax (fold over vehicle): 1.84 ± 0.07 fold over vehicle
  Potency EC20: 11 ± 3.2 nM

## COc1cc2c3c(n(CCCN4CCOCC4)c(=O)c2cc1OC)-c1cc2c(cc1C3=O)OCO2 [NSC724998]
[1]
  Efficacy Emax (fold over control): 1.65 ± 0.03 fold over control
[2]
  EC50: 12 ± 4 nM
[3]
  Efficacy Emax (fold over vehicle): 1.69 ± 0.03 fold over vehicle
  Potency EC20: 14 ± 2.2 nM

## COc1cc2c3c(n(CCCn4ccnc4)c(=O)c2cc1OC)-c1cc2c(cc1C3=O)OCO2 [NSC725776]
[1]
  Efficacy Emax (fold over control): 1.82 ± 0.05 fold over control
[2]
  EC50: 9.2 ± 2 nM
[3]
  Efficacy Emax (fold over vehicle): 1.76 ± 0.03 fold over vehicle
  Potency EC20: 10 ± 1.6 nM

## CC[C@@]1(O)C(=O)OCc2c1cc1n(c2=O)Cc2cc3c([N+](=O)[O-])cccc3nc2-1 [Rubitecan (9-Nitro-CPT), Rubitecan]
[4]
  maximal fold induction: 2.07 ± 0.08
[5]
  EC50: 43 ± 9.1 nM
[6]
  EC20: 62 ± 18 nM
[7]
  maximal fold induction: 2.09 ± 0.09

## CC[C@@]1(O)C(=O)OCc2c1cc1n(c2=O)Cc2c-1nc1ccc(O)cc1c2[Si](C)(C)C(C)(C)C [Silatecan (DB67), Silatecan]
[4]
  maximal fold induction: 1.71 ± 0.06
[5]
  EC50: 2640 ± 95 nM
[6]
  EC20: 2240 ± 171 nM
[7]
  maximal fold induction: 1.65 ± 0.05

## ICRF-193
Table 1, cortical neurons
  EC50: 131 ± 13 nM
[3]
  Potency EC20 (nM): 205 ± 70^ nM
  unsilencing of paternal Ube3a-YFP in dose-response experiments: unsilenced the paternal Ube3a-YFP allele
